Data as given in paper PMC10552107 (ACS Omega, 2023).

Columns and labels:
PD-L1 receptor = PD-L1 receptor (Mus musculus, UniProt Q9EP73); assay: Membrane receptor expression analysis using flow cytometry; type: cell-based, murine; settings: 4T1, 500 nM, APC-conjugated PD-L1 antibody
CD47/SIRPα axis = assay: In vitro phagocytosis assay, BMDMs cocultured with CT26.CL25; type: cell-based, BALB/c mice; settings: 30 min treatment of CT26.CL25, 200 nM; comparison of the two treated groups

Sequence of PD-L1 receptor (Q9EP73 19-290): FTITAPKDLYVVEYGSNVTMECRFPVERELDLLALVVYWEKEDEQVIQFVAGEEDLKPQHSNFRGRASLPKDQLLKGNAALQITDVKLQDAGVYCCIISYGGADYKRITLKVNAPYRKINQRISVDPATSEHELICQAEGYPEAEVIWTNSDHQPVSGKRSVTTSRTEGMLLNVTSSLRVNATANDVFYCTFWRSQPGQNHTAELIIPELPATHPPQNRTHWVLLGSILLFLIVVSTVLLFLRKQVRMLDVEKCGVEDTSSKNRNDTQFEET

Row | Substance | PD-L1 expression (percentage of positive cells) (PD-L1 receptor; 1 h) | PD-L1 expression (percentage of positive cells) (PD-L1 receptor; 48 h) | phagocytic index (%) (CD47/SIRPα axis)
1 | D-peptide NYSKPTDRQYHF [PD-L1-ligand] | 3.29% | 7.82% | –
2 | EEELQIIQPDKSVLVAAGETATLRCTITSLFPVGPIQWFRGAGPGRVLIYNQRQGPFPRVTTVSDTTKRNNMDFSIRIGNITPADAGTYYCIKFRKGSPDDVEFKSGAGTELSVRAKP [CD47-ligand] | – | – | similar
